Experimental findings from EP4692088A1, “COMPOUND ACTING AS WRN HELICASE INHIBITOR” (SHANGHAI JEYOU PHARMACEUTICAL CO., LTD., priority 2023, dated 2024) are described below.

One assay has as its system SW620 cells. The assay can be described thus: Cell proliferation assay (CellTiter-Glo), SW620. The format is cell-based. The note with it: Homo sapiens, 120 h, SW-620 (MSS), 5 days incubation. The protocol: (§1) SW48 cells were plated at a density of 1,500 cells/well, and LoVo, HCT116, and SW620 cells were plated at a density of 800 cells/well in a 96-well cell culture plate, and cultured in a 37°C incubator overnight. The test compounds, which were gradient-diluted with DMSO, were added, and after incubation for 5 days, cell viability was detected using a CellTiter-Glo kit. The CellTiter-Glo reagent was equilibrated to room temperature, and an appropriate amount was added to the cell plate, followed by shaking at room temperature for 12 min. The luminescence signal was detected using a microplate reader.
(§2) The luminescence signal values of the DMSO-treated wells and cell-free wells were used as negative and positive controls, respectively, to calculate the inhibition rate of compound on cell proliferation. The concentration-inhibition curve was fitted using the "log(inhibitor) vs. normalized response -- Variable slope" equation in GraphPad Prism 8 software to obtain the IC50. [formula]

Another assay relates to LoVo. The assay can be described thus: Cell proliferation assay (CellTiter-Glo), LoVo. The format is cell-based. The settings on record: Homo sapiens, 120 h, 5 days incubation. As to the method:
as §1, §2

The subject of the next assay is HCT116 cells. Put plainly: Cell proliferation assay (CellTiter-Glo), HCT116. The format is cell-based. The note with it: Homo sapiens, 120 h, HCT-116, 5 days incubation. The protocol: as §1, §2
The next assay concerns SW48 cells. Put plainly: Cell proliferation assay (CellTiter-Glo), SW48. The format is cell-based. The note with it: Homo sapiens, SW48, 120 h, SW-48, 5 days incubation. As to the method: as §1, §2
Another assay deals with T1, WRN enzyme (Homo sapiens, UniProt Q14191).
T1 construct: host or cells: eukaryotic cells (not further specified)
T1 sequence (Q14191 whole entry): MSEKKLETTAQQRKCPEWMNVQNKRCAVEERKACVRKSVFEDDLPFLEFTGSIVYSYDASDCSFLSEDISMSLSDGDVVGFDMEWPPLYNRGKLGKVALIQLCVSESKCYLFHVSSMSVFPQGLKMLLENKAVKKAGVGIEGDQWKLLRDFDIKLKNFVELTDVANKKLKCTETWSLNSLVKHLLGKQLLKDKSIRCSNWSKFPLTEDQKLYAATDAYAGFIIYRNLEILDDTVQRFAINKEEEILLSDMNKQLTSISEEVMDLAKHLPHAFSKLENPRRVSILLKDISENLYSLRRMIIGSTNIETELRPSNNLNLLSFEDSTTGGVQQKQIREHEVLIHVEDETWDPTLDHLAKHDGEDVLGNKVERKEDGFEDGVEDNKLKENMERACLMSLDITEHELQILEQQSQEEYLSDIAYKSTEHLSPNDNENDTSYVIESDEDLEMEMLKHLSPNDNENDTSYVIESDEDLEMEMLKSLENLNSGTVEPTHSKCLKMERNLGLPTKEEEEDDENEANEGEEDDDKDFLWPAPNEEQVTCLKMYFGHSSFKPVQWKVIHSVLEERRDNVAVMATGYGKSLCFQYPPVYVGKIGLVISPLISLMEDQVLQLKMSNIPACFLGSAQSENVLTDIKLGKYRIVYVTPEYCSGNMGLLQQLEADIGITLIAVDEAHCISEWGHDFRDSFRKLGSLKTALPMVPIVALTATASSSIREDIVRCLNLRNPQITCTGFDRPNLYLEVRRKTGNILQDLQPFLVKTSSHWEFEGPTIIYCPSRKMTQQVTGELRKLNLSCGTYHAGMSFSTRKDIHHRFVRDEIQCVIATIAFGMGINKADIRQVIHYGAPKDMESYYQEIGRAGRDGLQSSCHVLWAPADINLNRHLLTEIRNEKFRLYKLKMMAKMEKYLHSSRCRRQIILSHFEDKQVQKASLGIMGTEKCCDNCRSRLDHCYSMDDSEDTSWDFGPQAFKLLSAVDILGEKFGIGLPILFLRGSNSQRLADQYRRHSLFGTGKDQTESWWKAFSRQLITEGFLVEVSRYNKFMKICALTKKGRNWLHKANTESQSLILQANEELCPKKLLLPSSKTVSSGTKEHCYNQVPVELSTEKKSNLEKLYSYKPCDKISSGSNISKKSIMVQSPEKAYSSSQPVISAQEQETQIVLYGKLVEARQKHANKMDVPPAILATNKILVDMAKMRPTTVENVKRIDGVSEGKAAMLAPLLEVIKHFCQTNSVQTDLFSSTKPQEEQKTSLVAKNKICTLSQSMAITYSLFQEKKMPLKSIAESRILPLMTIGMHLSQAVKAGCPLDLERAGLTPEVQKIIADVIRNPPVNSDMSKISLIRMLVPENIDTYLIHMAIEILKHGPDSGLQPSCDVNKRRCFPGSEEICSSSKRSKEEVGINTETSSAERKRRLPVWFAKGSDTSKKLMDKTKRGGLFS
The assay can be described thus: biochemical. As to the method:
The WRN enzyme used in the experiment has a His-TEV tag at the N-terminus and is expressed in eukaryotic cells with a purity of 90%. The assay kit (ADP-Glo™ Kinase Assay) was purchased from Promega (Cat. No. V9101), aliquoted, and then stored in the refrigerator at -40°C. This kit could quantitatively detect the amount of ADP generated in the reaction. WRN hydrolyzed ATP to produce ADP. The ADP-Glo reagent was added to deplete excess ATP in the reaction system, followed by the addition of Kinase Detection Reagent to convert the ADP produced by the reaction into ATP and produce chemiluminescence. The enzyme activity of WRN can be reflected by detecting the chemiluminescence signal using a microplate reader.
Single-stranded DNA was annealed to form double-stranded DNA. 5× Annealing Buffer: 50 mM Tris pH 8.0, 100 mM NaCl. Annealing program: 95°C, 5 min.
2× WRN enzyme (1 nM) and 2× substrate (1 nM double-stranded DNA, 100 µM ATP) were prepared using a buffer (20 mM Bicine (pH 7.5), 10 mM KCl, 10 mM MgCl2, 0.005% BSG, 0.002% Tween 20, 1 mM TCEP). The test compound was dissolved in DMSO to 10 mM and was gradient-diluted using a 96-well V-bottom plate. First, 25 µL of 2× WRN enzyme and 0.5 µL of compound were added to a 96-well plate and incubated at room temperature for 30 min. Then, 25 µL of 2× substrate was added, and the reaction was carried out at room temperature for 60 min. 5 µL was taken from the reaction plate and transferred to a 384-well plate for detection. 5 µL of ADP-Glo reagent was added and incubated at room temperature for 60 min, followed by the addition of 10 µL of Kinase Detection Reagent and incubation at room temperature for 40 min. The chemiluminescence signal was detected using a microplate reader.

Where [1] appears, read: read-out: WRN helicase activity (IC50 nM).

Each structure is given as a SMILES string. Where two headings read alike, the source gives them in different places.

As to `CCc1c(N2CCN(C(=O)c3ncnc(C)c3O)CC2)c(=O)c2nn(C3=CCOCC3)cc2n1CC(=O)Nc1ccc(C(F)(F)F)cc1Cl` [Example 5], the IC50 with SW620 cells was above 25000 nM; in the assay on LoVo it was 2710 nM; with HCT116 cells, 1580 nM; in the assay with SW48 cells, 943 nM.
On to `CCc1c(N2CCN(C(=O)c3ncnc(C)c3O)CC2)c(=O)c2nn(C3=CCN(S(=O)(=O)C4CC4)CC3)cc2n1CC(=O)Nc1ccc(C(F)(F)F)cc1Cl` [Example 11], for which the IC50 at WRN enzyme (setting [1]) is 65.3 nM.
For `CCc1c(N2CCN(C(=O)c3ncnc(C)c3O)CC2)c(=O)c2nn(C3=CCOCC3)nc2n1CC(=O)Nc1ccc2c(c1)CC2` [Example 16], the results for the IC50 with SW620 cells, with SW48 cells and on WRN enzyme were above 25000 nM, 148 nM and 42.6 nM, respectively.
On to `CCc1c(C2=CCN(C(=O)c3ncnc(C)c3O)CC2)c(=O)c2cn(C3=CCOCC3)nc2n1CC(=O)Nc1ccc(C(F)(F)F)cc1Cl` [Example 10], for which the IC50 was above 25000 nM with SW620 cells; 871 nM in the assay with LoVo; 552 nM in the assay with HCT116 cells; 331 nM in the assay with SW48 cells; 238 nM against WRN enzyme.
With `CCc1c(N2CCN(C(=O)c3ncnc(C)c3O)CC2)c(=O)c2nn(C3=CCOCC3)nc2n1CC(=O)Nc1ccc(C(F)(F)F)cc1C` [Example 8], the IC50 is above 25000 nM in the assay on SW620 cells, 133 nM in the assay with SW48 cells and 118 nM against WRN enzyme.
For `CCc1c(N2CCN(C(=O)c3ncccc3O)CC2)c(=O)c2nn(C3=CCOCC3)cc2n1CC(=O)Nc1ccc(C(F)(F)F)cc1Cl` [Example 6], the IC50 with SW620 cells is above 25000 nM; with SW48 cells it was 324 nM; on WRN enzyme it was 134 nM.
As to `CCc1c(N2CCN(C(=O)c3ncccc3O)CC2)c(=O)c2nn(C3=CCOCC3)nc2n1CC(=O)Nc1ccc(C(F)(F)F)cc1Cl` [Example 20], the figures for the IC50 in the assay with SW620 cells, with SW48 cells and against WRN enzyme were 23700 nM, 33.8 nM and 35.5 nM, respectively.
Turning to `CCc1c(N2CCN(C(=O)c3ncnc(C)c3O)CC2)c(=O)c2nn(C3=CCOCC3)nc2n1CC(=O)Nc1cc(Cl)c(C(F)(F)F)cc1C` [Example 14], the figures for the IC50 in the assay with SW620 cells, in the assay on SW48 cells and against WRN enzyme were above 25000 nM, 42.4 nM and 30.8 nM, respectively.
For `CCc1c(N2CCN(C(=O)c3ncccc3O)CC2)c(=O)c2nn(C3=CCOCC3)nc2n1CC(=O)Nc1cc(F)c(C(F)(F)F)cc1Cl` [Example 19], in that order: 20700 nM, 60.9 nM and 44.3 nM.
For `CCc1c(N2CCN(C(=O)c3ncnc(C)c3O)CC2)c(=O)c2nn(C3=CCOCC3)nc2n1CC(=O)Nc1cc(F)c(C(F)(F)F)cc1F` [Example 23], in that order: above 25000 nM, 102 nM and 41.9 nM.
Take `CCc1c(N2CCN(C(=O)c3ncnc(C)c3O)CC2)c(=O)c2nn(C3=CCOCC3)nc2n1CC(=O)Nc1ccc(C(F)(F)F)cc1F` [Example 9]: the IC50 at WRN enzyme (setting [1]) worked out at 94.9 nM.
On to `CCc1c(N2CCN(C(=O)c3ncncc3O)CC2)c(=O)c2nn(C3=CCOCC3)nc2n1CC(=O)Nc1ccc(C(F)(F)F)cc1Cl` [Example 18], for which the figures for the IC50 in the assay with SW620 cells, in the assay on SW48 cells and at WRN enzyme were above 25000 nM, 51.1 nM and 64.3 nM, respectively.
Turning to `CCc1c(N2CCN(C(=O)c3ncnc(C)c3O)CC2)c(=O)c2nn(C3=CCOCC3)nc2n1CC(=O)Nc1ccc(S(F)(F)(F)(F)F)cc1` [Example 21], the IC50 on WRN enzyme (setting [1]) was found to be 24.4 nM.
As to `CCc1c(N2CCN(C(=O)c3ncnc(C)c3O)CC2)c(=O)c2nn(C3=CCOCC3)nc2n1CC(=O)Nc1ccc2c(c1)CCC2` [Example 17], the IC50 was above 25000 nM with SW620 cells, 126 nM in the assay on SW48 cells and 34.7 nM against WRN enzyme.
Turning to `CCc1c(N2CCN(C(=O)c3ncnc(C)c3O)CC2)c(=O)c2nn(C3=CCOCC3)cc2n1CC(=O)Nc1ccc(S(F)(F)(F)(F)F)cc1` [Example 12], the IC50 in the assay on SW620 cells was above 25000 nM; in the assay with SW48 cells it was 317 nM; against WRN enzyme, 86 nM.
`CCc1c(N2CCN(C(=O)c3ncnc(C)c3O)CC2)c(=O)c2nn(C3=CCOCC3)nc2n1CC(=O)Nc1ncc(C(F)(F)F)cc1Cl` [Example 13]: the 50% inhibitory concentration (IC50) in the assay on SW620 cells was above 25000 nM; with HCT116 cells, 435 nM; at WRN enzyme, 104 nM.
